Here are results for two compounds from ChEMBL document CHEMBL1201862, “PubChem BioAssay data set” (2004).

Among the test systems are DU-145; MOLT-4; U-251; SF-295; Hs-578T; SNB-19; EKVX; NCI-H522; HOP-92; NCI-H23; MCF7; SF-268; HCT-15; BT-549; COLO 205; HCC 2998; TK-10; SW-620; RPMI-8226; SK-MEL-28.
Common to all, as to experiment: NCI anticancer screen, dose series, 48 h

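Five concentrations, 48 hours, 96-well plates. Abbreviation: GI50, concentration required for 50% inhibition of growth.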 Calls of active or inactive are those of the source. Cut-off read from the data, not from the text of the source: active = GI50 up to about 1.1 µM and inactive = higher.

Regarding `Cc1cc[n+]2c(c1)-c1cc(C)cc[n+]1CC2`, the GI50 with DU-145, in the assay with MOLT-4, with U-251, in the assay on SF-295, in the assay with Hs-578T and in the assay on SNB-19 was > 100 µM (inactive) each time. Besides, the GI50 in the assay on EKVX was > 100 µM (inactive); with NCI-H522, 29.4 µM (inactive); with HOP-92, > 100 µM (inactive); with NCI-H23 it was 84.5 µM (inactive); in the assay on MCF7, > 100 µM (inactive); in the assay on SF-268 it was > 100 µM (inactive). For the same compound, the GI50 with HCT-15 is over 100 µM; in the assay on BT-549, > 100 µM (inactive); with COLO 205 it was 22.6 µM (inactive); in the assay on HCC 2998, > 100 µM (inactive); with TK-10 it was > 100 µM (inactive); in the assay on SW-620, > 100 µM (inactive). For the same compound, the GI50 in the assay with RPMI-8226 and with SK-MEL-28 was > 100 µM (inactive) each time.

As to `CSCCCNC(=O)c1csc(-c2csc(CCN)n2)n1`, the GI50 is > 100 µM (inactive) in the assay with DU-145; > 100 µM (inactive) in the assay on MOLT-4; > 100 µM (inactive) in the assay on U-251; > 100 µM (inactive) in the assay on SF-295; 56.8 µM (inactive) in the assay on Hs-578T; > 100 µM (inactive) in the assay with SNB-19. In addition, the GI50 was > 100 µM (inactive) in the assay with EKVX; > 100 µM (inactive) in the assay on NCI-H522; > 100 µM (inactive) in the assay with HOP-92; > 100 µM (inactive) with NCI-H23; 74.1 µM (inactive) in the assay on MCF7; > 100 µM (inactive) in the assay on SF-268. In addition, the GI50 with HCT-15 is 54.8 µM; with BT-549 it was > 100 µM (inactive); in the assay on COLO 205 it was > 100 µM (inactive); in the assay with HCC 2998 it was > 100 µM (inactive); with TK-10, > 100 µM (inactive); in the assay on SW-620 it was > 100 µM (inactive). In addition, the GI50 in the assay on RPMI-8226 is 44.7 µM (inactive); with SK-MEL-28 it was > 100 µM (inactive).
